Measured values from the supplement of paper PMC10307832.

What was measured:
Test in all cases: relative viability (nuclei count vs DMSO), 5 days (fraction); higher = more cells survive
[1] = tested on: NCI-H2347
In short: (§1)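 Lung cancer cell lines were seeded in 1536-well plates and dosed by pin tool the next day, with either a single drug or a fixed anchor-drug dose combined with five library-drug doses (not always all listed) spaced in √10 steps. Five days later, one step fixed the cells and stained their nuclei (final 0.05% Triton X-100, 1% formaldehyde, 1 ug/ml Hoechst), and nuclei were counted on 4× images. Relative viability is the nuclei count in treated wells divided by the count in vehicle wells, and each value is the median of duplicate plates.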

[2] = tested on: NCI-H838
In short: as §1

[3] = tested on: NCI-H2009
In short: as §1

[4] = tested on: NCI-H1993
In short: as §1

[5] = tested on: SK-MES-1
In short: as §1

[6] = tested on: PC-14
In short: as §1

[7] = tested on: NCI-H1355
In short: as §1

[8] = tested on: NCI-H1755
In short: as §1

[9] = tested on: NCI-H1734
In short: as §1

[10] = tested on: NCI-H2228
In short: as §1

[11] = tested on: HCC-15
In short: as §1

[12] = tested on: HARA
In short: as §1

[13] = tested on: NCI-H2170
In short: as §1

[14] = tested on: NCI-H1395
In short: as §1

[15] = tested on: COR-L23
In short: as §1

[16] = tested on: HOP-62
In short: as §1

[17] = tested on: NCI-H1793
In short: as §1

[18] = tested on: UMC-11
In short: as §1

[19] = tested on: EKVX
In short: as §1

[20] = tested on: COR-L 105
In short: as §1

[21] = tested on: NCI-H647
In short: as §1

SMILES: NC(=O)Nc1cc(-c2cccc(F)c2)sc1C(=O)N[C@H]1CCCNC1 [AZD7762] + CC1(C)CCC(c2ccc(Cl)cc2)=C(CN2CCN(c3ccc(C(=O)NS(=O)(=O)c4ccc(N[C@H](CCN5CCOCC5)CSc5ccccc5)c(S(=O)(=O)C(F)(F)F)c4)cc3)CC2)C1 [Navitoclax] (partner 0.5 µM)
- relative viability ([1]; first compound 0.01 µM): 0.829
- relative viability ([1]; first compound 0.03162 µM): 0.934
- relative viability ([1]; first compound 0.1 µM): 0.935
- relative viability ([1]; first compound 0.3162 µM): 0.991
- relative viability ([1]; first compound 1 µM): 0.982
- relative viability ([2]; first compound 0.01 µM): 1.19
- relative viability ([2]; first compound 0.03162 µM): 1.15
- relative viability ([2]; first compound 0.1 µM): 1.09
- relative viability ([2]; first compound 0.3162 µM): 1.03
- relative viability ([2]; first compound 1 µM): 0.576
- relative viability ([3]; first compound 0.01 µM): 1.27
- relative viability ([3]; first compound 0.03162 µM): 1.19
- relative viability ([3]; first compound 0.1 µM): 1.25
- relative viability ([3]; first compound 0.3162 µM): 1.13
- relative viability ([3]; first compound 1 µM): 1.08
- relative viability ([4]; first compound 0.01 µM): 0.943
- relative viability ([4]; first compound 0.03162 µM): 1.04
- relative viability ([4]; first compound 0.1 µM): 0.846
- relative viability ([4]; first compound 0.3162 µM): 0.983
- relative viability ([4]; first compound 1 µM): 0.823
- relative viability ([5]; first compound 0.01 µM): 1.24
- relative viability ([5]; first compound 0.03162 µM): 1.38
- relative viability ([5]; first compound 0.1 µM): 1.41
- relative viability ([5]; first compound 0.3162 µM): 1.28
- relative viability ([5]; first compound 1 µM): 0.645
- relative viability ([6]; first compound 0.01 µM): 1.09
- relative viability ([6]; first compound 0.03162 µM): 1.02
- relative viability ([6]; first compound 0.1 µM): 1.02
- relative viability ([6]; first compound 0.3162 µM): 0.895
- relative viability ([6]; first compound 1 µM): 0.512
- relative viability ([7]; first compound 0.01 µM): 0.879
- relative viability ([7]; first compound 0.03162 µM): 1.07
- relative viability ([7]; first compound 0.1 µM): 0.946
- relative viability ([7]; first compound 0.3162 µM): 1.01
- relative viability ([7]; first compound 1 µM): 0.914
- relative viability ([8]; first compound 0.01 µM): 1.03
- relative viability ([8]; first compound 0.03162 µM): 1.01
- relative viability ([8]; first compound 0.1 µM): 1.08
- relative viability ([8]; first compound 0.3162 µM): 1.08
- relative viability ([8]; first compound 1 µM): 0.622
- relative viability ([9]; first compound 0.01 µM): 0.995
- relative viability ([9]; first compound 0.03162 µM): 0.892
- relative viability ([9]; first compound 0.1 µM): 0.978
- relative viability ([9]; first compound 0.3162 µM): 0.891
- relative viability ([9]; first compound 1 µM): 0.606
- relative viability ([10]; first compound 0.01 µM): 1
- relative viability ([10]; first compound 0.03162 µM): 0.552
- relative viability ([10]; first compound 0.1 µM): 1
- relative viability ([10]; first compound 0.3162 µM): 0.666
- relative viability ([10]; first compound 1 µM): 0.354
- relative viability ([11]; first compound 0.01 µM): 0.663
- relative viability ([11]; first compound 0.03162 µM): 0.708
- relative viability ([11]; first compound 0.1 µM): 0.771
- relative viability ([11]; first compound 0.3162 µM): 0.728
- relative viability ([11]; first compound 1 µM): 0.789
- relative viability ([12]; first compound 0.01 µM): 1.12
- relative viability ([12]; first compound 0.03162 µM): 1.15
- relative viability ([12]; first compound 0.1 µM): 1.2
- relative viability ([12]; first compound 0.3162 µM): 1.12
- relative viability ([12]; first compound 1 µM): 0.801
- relative viability ([13]; first compound 0.01 µM): 0.62
- relative viability ([13]; first compound 0.03162 µM): 0.702
- relative viability ([13]; first compound 0.1 µM): 0.577
- relative viability ([13]; first compound 0.3162 µM): 0.653
- relative viability ([13]; first compound 1 µM): 0.584
- relative viability ([14]; first compound 0.01 µM): 1.27
- relative viability ([14]; first compound 0.03162 µM): 1.66
- relative viability ([14]; first compound 0.1 µM): 1.41
- relative viability ([14]; first compound 0.3162 µM): 0.634
- relative viability ([14]; first compound 1 µM): 0.408
- relative viability ([15]; first compound 0.01 µM): 1.28
- relative viability ([15]; first compound 0.03162 µM): 1.01
- relative viability ([15]; first compound 0.1 µM): 1.01
- relative viability ([15]; first compound 0.3162 µM): 0.891
- relative viability ([15]; first compound 1 µM): 0.194
- relative viability ([16]; first compound 0.01 µM): 1.2
- relative viability ([16]; first compound 0.03162 µM): 1.03
- relative viability ([16]; first compound 0.1 µM): 1.19
- relative viability ([16]; first compound 0.3162 µM): 1.16
- relative viability ([16]; first compound 1 µM): 0.969
- relative viability ([17]; first compound 0.01 µM): 0.437
- relative viability ([17]; first compound 0.03162 µM): 0.645
- relative viability ([17]; first compound 0.1 µM): 0.476
- relative viability ([17]; first compound 0.3162 µM): 0.368
- relative viability ([17]; first compound 1 µM): 0.211
- relative viability ([18]; first compound 0.01 µM): 0.312
- relative viability ([18]; first compound 0.03162 µM): 0.32
- relative viability ([18]; first compound 0.1 µM): 0.272
- relative viability ([18]; first compound 0.3162 µM): 0.307
- relative viability ([18]; first compound 1 µM): 0.21
- relative viability ([19]; first compound 0.01 µM): 0.954
- relative viability ([19]; first compound 0.03162 µM): 0.863
- relative viability ([19]; first compound 0.1 µM): 0.918
- relative viability ([19]; first compound 0.3162 µM): 0.596
- relative viability ([19]; first compound 1 µM): 0.574
- relative viability ([20]; first compound 0.01 µM): 0.694
- relative viability ([20]; first compound 0.03162 µM): 0.768
- relative viability ([20]; first compound 0.1 µM): 0.671
- relative viability ([20]; first compound 0.3162 µM): 0.527
- relative viability ([20]; first compound 1 µM): 0.463
- relative viability ([21]; first compound 0.01 µM): 1.33
- relative viability ([21]; first compound 0.03162 µM): 1.08
- relative viability ([21]; first compound 0.1 µM): 0.969
- relative viability ([21]; first compound 0.3162 µM): 0.858
- relative viability ([21]; first compound 1 µM): 0.277
